Measurements reported in patent publication US20060241174A1, “Vitamin E tocotrienols inhibition of intracellularly obligate pathogen Chlamydia and methods of use” (priority 2005, published 2006).

System: C. trachomatis serovar K
Experiment: Inclusion count by immunofluorescence in C. trachomatis-infected mouse macrophages (J774A.1) treated with delta tocotrienol
Assay type: cell-based, Chlamydia trachomatis
Method: FIG. 3 illustrates Chlamydia-infected mouse macrophage cells treated with delta tocotrienol (400× magnification). Mouse macrophages (J774A. 1 cells) were pretreated with a 30 μmol/L concentration of delta tocotrienol in culture for 4 hours and infected with C. trachomatis SVK for 48 hours. Arrows indicate inclusions. Cells were viewed and digitally documented using a Zeiss LSM 510 Meta Confocal System at a magnification of 400×. White arrows point out characteristic inclusions (Scale indicates 50 μm).
FIG. 4 illustrates Chlamydia-infected mouse macrophage cells treated with delta tocotrienol (630× magnification). White arrows point to representative cells. Note numerous very small, unfused inclusions in A (Scale indicates 50 μm).
Chlamydial Strains: Stocks of C. trachomatis serovar K/VR887 were grown in J774A.1 cells without centrifuge assistance. Infected cells were lysed, this stock aliquoted and frozen down in SPG freeze medium (75.0 g sucrose, 0.52 g potassium phosphate, 1.22 g sodium phosphate dibasic, 0.72 g glutamic acid, diluted in […] ddH2O). These aliquots were stored in liquid N2 or at −80° C., and later thawed for use to infect monolayers.
Cell Lines Used: Mouse macrophages (J774A.1), human mammary tumor cells (MCF-7), and human epithelial cells (Hep-2), were obtained from the American Type Culture collection. Human mammary tumor cells (TMX2-28) were a kind gift from Dr. Arcaro, and human B-lymphocytes (JY) were a kind gift from Dr. Eric Martz. All cell lines were maintained in Richter's improved MEM insulin (IMEMZO, Irvine Scientific, Santa Ana, Calif.) with 5% fetal bovine serum (FBS, Atlanta Biologicals, Norcross, Ga.). Cells were grown to 80% confluence on 12 mm coverslips in 12 well plates (Becton Dickinson Labware, Franklin Lakes, N.J.). A dilution of 1:125 or 1:200 of the C. trachomatis serovar K stock was made using the standard complete cycloheximide overlay media (Bio-Whittaker, Walkersville, Md.) containing 10% FBS, and 1× L-glutamine (CCOM). This was layered onto the coverslip containing monolayers, and incubated for 24-48 hours at 37° C. with 5% CO2. Coverslips with the cell monolayers were harvested, rinsed with phosphate buffered saline (PBS), fixed with 70% cold methanol, stored and subsequently immunostained.
Delta Tocotrienol Treatment: A stock of delta tocotrienol (98% purity, American River Nutrition, Hadley, Mass.) was diluted to 1 mg/1 ml in absolute ethanol [EtOH]. Confluent monolayers of J774A.1, MCF-7, TMX2-28, JY, or Hep-2 cells were treated with 5, 10, 20, 30, or 40 μmol/L concentrations of delta tocotrienol. Treatment occurred 5 hours prior to infection with C. trachomatis serovar K, at point of infection, or three hours post-infection.
Immunostaining: Briefly, infected cells were immunostained with a 1:2 dilution of guinea pig anti-chlamydia polyclonal antibody (Biomeda, Foster City, Calif.), or a 1:125 dilution of rabbit anti-chlamydia EB whole serum for 1 hour at 37° C. Following PBS rinses X3, the bound antibodies were detected using a 1:100 dilution of FITC-conjugated donkey anti-guinea pig or a 1:125 dilution of TRITC-conjugated goat anti-rabbit secondary antibodies (Jackson ImmunoResearch, West Grove, Pa.). Following incubation for 1 hour at room temperature and 3 rinses with PBS, coverslips were mounted onto slides using Fluoromount-G (Southern Biotechnology Associates Inc., Birmingham, Ala.) or Vectashield® Mounting Medium with DAPI (Vector Laboratories, Inc., Burlingame, Calif.), and were then sealed. Initially, slides were examined at 400× using a Nikon LABPHOT-2. For photography, slides were assessed in the Massachusetts Central Microscopy Facility using a Zeiss LSM 510 Meta Confocal System and 630× magnification. Images were captured, and as relevant, merged using the Confocal Assistant™ version 4.02 Image Processing Software.
Counts on all coverslips with experimental conditions as in FIG. 3 and 4 were done for the average of 10 fields of view. […]

[1] = First Infection, J774A.1, 30 μmol/L
[2] = Second Infection, J774A.1, 30 μmol/L
[3] = Third Infection, J774A.1, 30 μmol/L

delta tocotrienol
morphology of chlamydial inclusions (FIG. 4) (20-40 μmol/L delta tocotrienol, Chlamydia-specific immunofluorescence staining): immature, small, and less round | Inclusions (per field of view), Small (≦10 μm) [1]: 4.5 per field of view | Inclusions (per field of view), Total [1]: 5.2 per field of view | Inclusions Total/Cell [1]: 0.058 | Inclusions (per field of view), Large (15-20 μm) (First Infection, J774A.1, 30 μmol/L delta tocotrienol, average of 10 fields of view): 0.7 per field of view | Percent Inhibition (First Infection, treated vs control, J774A.1, 30 μmol/L): 52.3% | large, mature inclusions (FIG. 3) (J774A.1, 30 μmol/L pretreatment, 48 hours infection, 400× magnification): no evidence of large, mature inclusions | size of large inclusions in the tocotrienol-treated cells (J774A.1, control cells 20 μm): 10-15 μm | inclusions thinner than in control cells (Z-axis) (J774A.1, optical sections, treated vs control): 3 fold | inclusions smaller than in control cells (X-Y axes) (J774A.1, treated vs control): 2 to 3 fold | Inclusions (per field of view), Large (15-20 μm) (Second Infection (supernatant transfer to uninfected treated cells), J774A.1, 30 μmol/L): 1.4 per field of view | Inclusions (per field of view), Small (≦10 μm) [2]: 0.6 per field of view | Inclusions (per field of view), Total [2]: 2.0 per field of view | Inclusions Total/Cell [2]: 0.032 | Percent Inhibition (Second Infection, treated vs control, J774A.1, 30 μmol/L): 43.8% | Inclusions (per field of view), Large (15-20 μm) [3]: 0.7 per field of view | Inclusions (per field of view), Small (≦10 μm) [3]: 1.1 per field of view | Inclusions (per field of view), Total [3]: 1.8 per field of view | Inclusions Total/Cell [3]: 0.016 | Percent Inhibition (Third Infection, treated vs control, J774A.1, 30 μmol/L): 39.0% | chlamydial inclusion volume smaller than control (calculated (2×3 to 3×3)): 6-9 fold | percent inhibition of inclusion formation in tocotrienol-treated as compared to untreated cells (summary of Table 1, 30 μmol/L): 40-50% | number of chlamydial inclusions (immunofluorescence staining) (tocotrienol-treated cells vs control, FIG. 3, Table 1): decreased significantly
